Key:
[1] = molecular target: Human α2δ-1 subunit of Cav2.2 calcium channel (Homo sapiens, UniProt P54289); test: Human α2δ-1 subunit of Cav2.2 calcium channel assay ([3H]-gabapentin binding); settings: binding to the α2δ-1 subunit of voltage-gated calcium channels expressed as Ki; + also covers inhibition between 1% and 50%
Description: Biological Activity Pharmacological Study Human α2δ-1 Subunit of Cav2.2 Calcium Channel Assay
Human α2δ-1 enriched membranes (2.5 μg) were incubated with 15 nM of radiolabeled [^3H]-Gabapentin in assay buffer containing Hepes-KOH 10 mM, pH 7.4. NSB (non specific binding) was measured by adding 10 μM pregabalin. The binding of the test compound was measured at either one concentration (% inhibition at 1 or 10 μM) or five different concentrations to determine affinity values (Ki). After 60 min incubation at 27° C., binding reaction was terminated by filtering through Multiscreen GF/C (Millipore) presoaked in 0.5% polyethyleneimine in Vacuum Manifold Station, followed by 3 washes with ice-cold filtration buffer containing 50 mM Tris-HCl, pH 7.4. Filter plates were dried at 60° C. for 1 h and 30 μL of scintillation cocktail were added to each well before radioactivity reading. Readings were performed in a Trilux 1450 Microbeta radioactive counter (Perkin Elmer).

Human σ1 receptor = molecular target: T1, Human σ1 receptor (Homo sapiens, UniProt Q99720); test: Human σ1 receptor radioligand assay ([3H](+)-pentazocine binding, transfected HEK-293 membranes); settings: binding to σ1 receptor expressed as Ki; + also covers inhibition between 1% and 50%; read-out: σ-1 binding
T1 construct: expressed in transfected cells; host or cells: HEK-293
Description: Human σ1 Receptor Radioligand Assay
Transfected HEK-293 membranes (7 μg) were incubated with 5 nM of [^3H](+)-pentazocine in assay buffer containing Tris-HCl 50 mM at pH 8. NBS (non-specific binding) was measured by adding 10 μM haloperidol. The binding of the test compound was measured at either one concentration (% inhibition at 1 or 10 μM) or five different concentrations to determine affinity values (Ki). Plates were incubated at 37° C. for 120 minutes. After the incubation period, the reaction mix was then transferred to MultiScreen HTS, FC plates (Millipore), filtered and plates were washed 3 times with ice-cold 10 mM Tris-HCL (pH7.4). Filters were dried and counted at approximately 40% efficiency in a MicroBeta scintillation counter (Perkin-Elmer) using EcoScint liquid scintillation cocktail.

T1 sequence (Q99720 whole entry): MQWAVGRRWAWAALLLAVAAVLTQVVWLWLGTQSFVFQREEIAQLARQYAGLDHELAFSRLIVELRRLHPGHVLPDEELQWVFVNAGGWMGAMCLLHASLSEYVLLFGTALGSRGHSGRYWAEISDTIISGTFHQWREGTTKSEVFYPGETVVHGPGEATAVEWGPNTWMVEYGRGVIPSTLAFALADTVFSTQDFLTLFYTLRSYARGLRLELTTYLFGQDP
Human α2δ-1 subunit of Cav2.2 calcium channel, sequence (P54289 25-1103): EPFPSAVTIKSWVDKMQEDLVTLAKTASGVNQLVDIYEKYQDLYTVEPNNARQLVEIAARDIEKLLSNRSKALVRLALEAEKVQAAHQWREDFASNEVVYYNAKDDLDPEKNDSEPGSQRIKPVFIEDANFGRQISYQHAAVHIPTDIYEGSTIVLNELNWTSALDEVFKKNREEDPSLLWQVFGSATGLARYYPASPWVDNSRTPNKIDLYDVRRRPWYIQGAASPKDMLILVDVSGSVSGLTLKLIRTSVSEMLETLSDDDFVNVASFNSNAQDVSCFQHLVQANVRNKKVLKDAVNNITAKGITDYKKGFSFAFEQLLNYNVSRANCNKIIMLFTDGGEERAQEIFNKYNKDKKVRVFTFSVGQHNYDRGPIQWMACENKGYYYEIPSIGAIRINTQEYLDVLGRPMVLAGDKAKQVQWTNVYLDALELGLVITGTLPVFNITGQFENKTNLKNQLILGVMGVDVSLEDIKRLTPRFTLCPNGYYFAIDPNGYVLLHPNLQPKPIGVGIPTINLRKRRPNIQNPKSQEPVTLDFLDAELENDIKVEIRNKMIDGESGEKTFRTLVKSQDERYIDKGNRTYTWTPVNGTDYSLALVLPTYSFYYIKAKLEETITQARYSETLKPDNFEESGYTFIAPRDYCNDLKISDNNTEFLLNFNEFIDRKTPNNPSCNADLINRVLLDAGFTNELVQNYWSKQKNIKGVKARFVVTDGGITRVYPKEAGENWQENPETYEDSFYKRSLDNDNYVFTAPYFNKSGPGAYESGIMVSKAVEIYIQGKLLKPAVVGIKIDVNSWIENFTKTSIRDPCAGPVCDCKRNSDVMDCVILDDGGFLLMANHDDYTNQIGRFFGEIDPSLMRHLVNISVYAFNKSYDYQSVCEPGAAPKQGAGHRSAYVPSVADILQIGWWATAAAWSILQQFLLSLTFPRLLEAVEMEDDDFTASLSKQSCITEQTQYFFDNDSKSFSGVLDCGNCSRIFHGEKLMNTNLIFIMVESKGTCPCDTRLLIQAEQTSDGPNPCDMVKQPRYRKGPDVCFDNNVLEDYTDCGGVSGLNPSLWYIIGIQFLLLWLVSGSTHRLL

SMILES | Ki [1] | Ki (Human σ1 receptor)
COc1cncc(-c2cc3nccc(C4CCCN(Cc5ccccc5)C4)n3n2)c1 (stereo not drawn) [Example 31, 7-(1-Benzylpiperidin-3-yl)-2-(5-methoxypyridin-3-yl)pyrazolo[1,5-a]pyrimidine] | 0.5 to 5 µM | > 1 µM
COc1cc(-c2cc3nccc(C4CCCN(Cc5ccccc5)C4)n3n2)ccn1 (stereo not drawn) [Example 32, 7-(1-Benzylpiperidin-3-yl)-2-(2-methoxypyridin-4-yl)pyrazolo[1,5-a]pyrimidine] | > 5 µM | > 1 µM
COc1cnccc1-c1cc2nccc(C3CCCN(Cc4ccccc4)C3)n2n1 (stereo not drawn) [Example 33, 7-(1-Benzylpiperidin-3-yl)-2-(3-methoxypyridin-4-yl)pyrazolo[1,5-a]pyrimidine] | 0.5 to 5 µM | > 1 µM
COc1ccncc1-c1cc2nccc(C3CCCN(Cc4ccccc4)C3)n2n1 (stereo not drawn) [Example 34, 7-(1-Benzylpiperidin-3-yl)-2-(4-methoxypyridin-3-yl)pyrazolo[1,5-a]pyrimidine] | 0.5 to 5 µM | > 1 µM
c1ccc(CN2CCCC(c3ccnc4c(-c5ccccc5)cnn34)C2)cc1 (stereo not drawn) [Example 35, 7-(1-Benzylpiperidin-3-yl)-3-phenylpyrazolo[1,5-a]pyrimidine] | > 5 µM | 0.5 to 1 µM
c1ccc(CN2CCCC(c3ccnc4c(-c5ccncc5)cnn34)C2)cc1 (stereo not drawn) [Example 36, 7-(1-Benzylpiperidin-3-yl)-3-(pyridin-4-yl)pyrazolo[1,5-a]pyrimidine] | 0.5 to 5 µM | 0.5 to 1 µM
c1ccc(CN2CCCC(c3ccnc4c(-c5cccnc5)cnn34)C2)cc1 (stereo not drawn) [Example 37, 7-(1-Benzylpiperidin-3-yl)-3-(pyridin-3-yl)pyrazolo[1,5-a]pyrimidine] | 0.5 to 5 µM | > 1 µM
COc1cc(-c2cnn3c(C4CCCN(Cc5ccccc5)C4)ccnc23)ccn1 (stereo not drawn) [Example 38, 7-(1-Benzylpiperidin-3-yl)-3-(2-methoxypyridin-4-yl)pyrazolo[1,5-a]pyrimidine] | 0.5 to 5 µM | > 1 µM
CCOc1ccc(-c2cnn3c(C4CCCN(Cc5ccccc5)C4)ccnc23)cc1 (stereo not drawn) [Example 39, 7-(1-Benzylpiperidin-3-yl)-3-(4-ethoxyphenyl)pyrazolo[1,5-a]pyrimidine] | > 5 µM | > 1 µM
COc1ncccc1-c1cnn2c(C3CCCN(Cc4ccccc4)C3)ccnc12 (stereo not drawn) [Example 40, 7-(1-Benzylpiperidin-3-yl)-3-(2-methoxypyridin-3-yl)pyrazolo[1,5-a]pyrimidine] | 0.5 to 5 µM | > 1 µM
Cc1cnc2c(-c3ccncc3)cnn2c1C1CCCN(Cc2ccccc2)C1 (stereo not drawn) [Example 41, 7-(1-Benzylpiperidin-3-yl)-6-methyl-3-(pyridin-4-yl)pyrazolo[1,5-a]pyrimidine] | 0.5 to 5 µM | > 1 µM
Cc1nn2c(C3CCCN(Cc4ccccc4)C3)ccnc2c1-c1ccncc1 (stereo not drawn) [Example 42, 7-(1-Benzylpiperidin-3-yl)-2-methyl-3-(pyridin-4-yl)pyrazolo[1,5-a]pyrimidine] | 0.5 to 5 µM | > 1 µM
COc1ncccc1-c1c(C)nn2c(C3CCCN(Cc4ccccc4)C3)ccnc12 (stereo not drawn) [Example 43, 7-(1-Benzylpiperidin-3-yl)-3-(2-methoxypyridin-3-yl)-2-methylpyrazolo[1,5-a]pyrimidine] | 0.5 to 5 µM | > 1 µM
Cc1nn2c(C3CCCN(Cc4ccccc4)C3)ccnc2c1-c1ccccc1 (stereo not drawn) [Example 44, 7-(1-Benzylpiperidin-3-yl)-2-methyl-3-phenylpyrazolo[1,5-a]pyrimidine] | > 5 µM | > 1 µM
CCOc1ccc(-c2c(C)nn3c(C4CCCN(Cc5ccccc5)C4)ccnc23)cc1 (stereo not drawn) [Example 45, 7-(1-Benzylpiperidin-3-yl)-3-(4-ethoxyphenyl)-2-methylpyrazolo[1,5-a]pyrimidine] | > 5 µM | 0.5 to 1 µM
COc1cc(-c2c(C)nn3c(C4CCCN(Cc5ccccc5)C4)ccnc23)ccn1 (stereo not drawn) [Example 46, 7-(1-Benzylpiperidin-3-yl)-3-(2-methoxypyridin-4-yl)-2-methylpyrazolo[1,5-a]pyrimidine] | 0.5 to 5 µM | > 1 µM
Cc1nn2c(C3CCCN(Cc4ccccc4)C3)ccnc2c1-c1ccc(N(C)C)cc1 (stereo not drawn) [Example 47, 4-(7-(1-Benzylpiperidin-3-yl)-2-methylpyrazolo[1,5-a]pyrimidin-3-yl)-N,N-dimethylaniline] | > 5 µM | > 1 µM

SMILES | Ki [1] | Ki (Human σ1 receptor)
Cc1nn2c(C3CCCN(Cc4ccccc4)C3)ccnc2c1-c1ccccc1F (stereo not drawn) [Example 48, 7-(1-Benzylpiperidin-3-yl)-3-(2-fluorophenyl)-2-methylpyrazolo[1,5-a]pyrimidine] | > 5 µM | > 1 µM
Cc1cnccc1-c1c(C)nn2c(C3CCCN(Cc4ccccc4)C3)ccnc12 (stereo not drawn) [Example 49, 7-(1-Benzylpiperidin-3-yl)-2-methyl-3-(3-methylpyridin-4-yl)pyrazolo[1,5-a]pyrimidine] | > 5 µM | > 1 µM
Cc1nn2c(C3CCCN(Cc4ccccc4)C3)ccnc2c1-c1ccnc(F)c1 (stereo not drawn) [Example 50, 7-(1-Benzylpiperidin-3-yl)-3-(2-fluoropyridin-4-yl)-2-methylpyrazolo[1,5-a]pyrimidine] | 0.5 to 5 µM | > 1 µM
Cc1cc(-c2c(C)nn3c(C4CCCN(Cc5ccccc5)C4)ccnc23)ccn1 (stereo not drawn) [Example 51, 7-(1-Benzylpiperidin-3-yl)-2-methyl-3-(2-methylpyridin-4-yl)pyrazolo[1,5-a]pyrimidine] | 0.5 to 5 µM | 0.5 to 1 µM
Cc1nn2c(C3CCCN(Cc4ccccc4)C3)ccnc2c1-c1ccncc1F (stereo not drawn) [Example 52, 7-(1-Benzylpiperidin-3-yl)-3-(3-fluoropyridin-4-yl)-2-methylpyrazolo[1,5-a]pyrimidine] | 0.5 to 5 µM | > 1 µM
Cc1nn2c(C3CCCN(Cc4ccccc4)C3)ccnc2c1-c1ccnc(C(F)(F)F)c1 (stereo not drawn) [Example 53, 7-(1-Benzylpiperidin-3-yl)-2-methyl-3-(2-(trifluoromethyl)pyridin-4-yl)pyrazolo[1,5-a]pyrimidine] | 0.5 to 5 µM | > 1 µM
CCc1cc(-c2c(C)nn3c(C4CCCN(Cc5ccccc5)C4)ccnc23)ccn1 (stereo not drawn) [Example 54, 7-(1-Benzylpiperidin-3-yl)-3-(2-ethylpyridin-4-yl)-2-methylpyrazolo[1,5-a]pyrimidine] | 0.5 to 5 µM | > 1 µM
Cc1nc(-c2cccc(-c3c(C)nn4c(C5CCCN(Cc6ccccc6)C5)ccnc34)c2)no1 (stereo not drawn) [Example 55, 3-(3-(7-(1-Benzylpiperidin-3-yl)-2-methylpyrazolo[1,5-a]pyrimidin-3-yl)phenyl)-5-methyl-1,2,4-oxadiazole] | 0.5 to 5 µM | > 1 µM
Cc1nnc(-c2cccc(-c3c(C)nn4c(C5CCCN(Cc6ccccc6)C5)ccnc34)c2)o1 (stereo not drawn) [Example 56, 2-(3-(7-(1-Benzylpiperidin-3-yl)-2-methylpyrazolo[1,5-a]pyrimidin-3-yl)phenyl)-5-methyl-1,3,4-oxadiazole] | 0.5 to 5 µM | > 1 µM
COc1cnccc1-c1c(C)nn2c(C3CCCN(Cc4ccccc4)C3)ccnc12 (stereo not drawn) [Example 57, 7-(1-Benzylpiperidin-3-yl)-3-(3-methoxypyridin-4-yl)-2-methylpyrazolo[1,5-a]pyrimidine] | 0.5 to 5 µM | > 1 µM
Cc1cnc2c(-c3ccncc3)c(C)nn2c1C1CCCN(Cc2ccccc2)C1 (stereo not drawn) [Example 58, 7-(1-Benzylpiperidin-3-yl)-2,6-dimethyl-3-(pyridin-4-yl)pyrazolo[1,5-a]pyrimidine] | 0.5 to 5 µM | > 1 µM
Cc1cc(C2CCCN(Cc3ccccc3)C2)n2nc(C)c(-c3ccncc3)c2n1 (stereo not drawn) [Example 59, 7-(1-Benzylpiperidin-3-yl)-2,5-dimethyl-3-(pyridin-4-yl)pyrazolo[1,5-a]pyrimidine] | 0.5 to 5 µM | > 1 µM
CCc1nn2c(C3CCCN(Cc4ccccc4)C3)ccnc2c1-c1ccncc1 (stereo not drawn) [Example 60, 7-(1-Benzylpiperidin-3-yl)-2-ethyl-3-(pyridin-4-yl)pyrazolo[1,5-a]pyrimidine] | 0.5 to 5 µM | > 1 µM
CNCc1cn(-c2cccc(-c3c(C)nn4c(C5CCCN(Cc6ccccc6)C5)ccnc34)c2)nn1 (stereo not drawn) [Example 61, 1-(1-(3-(7-(1-Benzylpiperidin-3-yl)-2-methylpyrazolo[1,5-a]pyrimidin-3-yl)phenyl)-1H-1,2,3-triazol-4-yl)-N-methylmethanamine] | 0.5 to 5 µM | > 1 µM
CNCc1cc(-c2c(C)nn3c(C4CCCN(Cc5ccccc5)C4)ccnc23)ccn1 (stereo not drawn) [Example 62, 1-(4-(7-(1-Benzylpiperidin-3-yl)-2-methylpyrazolo[1,5-a]pyrimidin-3-yl)pyridin-2-yl)-N-methylmethanamine] | 0.5 to 5 µM | > 1 µM
Cc1cc2nccc(C3CCCN(Cc4ccccc4F)C3)n2n1 (stereo not drawn) [Example 63, 7-(1-(2-Fluorobenzyl)piperidin-3-yl)-2-methylpyrazolo[1,5-a]pyrimidine] | > 5 µM | > 1 µM

From US12617797B2, “Substituted pyrazolo [1,5-a]pyrimidines having multimodal activity against pain” (ESTEVE PHARMACEUTICALS, S.A., priority 2020, dated 2026)
